Source: patent publication US8466340B2, “Mouse model for pompe disease and methods of use thereof” (Amicus Therapeutics, Inc., priority 2009, dated 2013)
Structures can show the parent of a compound that is named as a salt.

Tests used:
alpha-galactosidase = target: T1, alpha-galactosidase (Mus musculus, UniProt P51569); assay: Specificity: alpha-galactosidase in mice administered DNJ; format: in vivo; details: data not shown
T1 construct: from tissue
T1 sequence (P51569 32-419): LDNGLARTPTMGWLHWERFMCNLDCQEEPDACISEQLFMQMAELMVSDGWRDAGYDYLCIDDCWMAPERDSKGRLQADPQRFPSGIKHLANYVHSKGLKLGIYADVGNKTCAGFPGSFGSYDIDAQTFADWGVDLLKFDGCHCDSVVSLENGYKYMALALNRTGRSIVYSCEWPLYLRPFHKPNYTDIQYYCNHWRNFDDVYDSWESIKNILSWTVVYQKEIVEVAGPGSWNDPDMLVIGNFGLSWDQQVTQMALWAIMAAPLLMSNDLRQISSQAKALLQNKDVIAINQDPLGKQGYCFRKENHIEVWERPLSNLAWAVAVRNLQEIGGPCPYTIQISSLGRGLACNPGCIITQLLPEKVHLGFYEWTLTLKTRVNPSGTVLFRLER

recombinant human GAA = recombinant human GAA (Homo sapiens, UniProt P10253); assay: Binding to and thermostability of recombinant human GAA in vitro; details: data not shown
[1] = system: mutated form of GAA (M519V, P545L, G549R, L552P) in HEK293 cells; assay: GAA activity, protein and processing in HEK293 cells transiently-transfected with mutated GAA; format: cell-based; details: data not shown
hP545L GAA Tg/KO mice = assay: Biochemical assay for determining glycogen level (amyloglucosidase digestion) in tissues of DNJ-dosed hP545L GAA Tg/KO mice; format: in vivo, mouse; details: 'Moderate' hP545L GAA Tg/KO mice
Description: (§1) Mice were euthanized with CO2 and body weights were recorded. […] Plasma was collected by spinning blood at 2700 g for 10 minutes at 4° C. Heart, diaphragm, gastrocnemius, soleus, skin, and brain tissues were removed, washed in cold PBS, blotted dry, and weighed before storing on dry ice. For biochemical assays (GAA activity, glycogen and Western blotting), lysates were prepared by homogenizing ˜50 mg tissue for 3-5 seconds on ice with a micro homogenizer in 200 μL Lysis Buffer (25 mM Bis-Tris pH 6.5, 150 mM NaCl, 1% Triton X-100 pH 6.5). For histology assays, tissues were harvested and fixed immediately in 3.7% Formaldehyde/90% Ethanol mix. After fixation, the samples were processed in various grades (10, 20, 50, 75, 100%) of alcohol and embedded in paraffin.
Tissue glycogen levels were measured in supernatants of heat denatured (99° C. for 10 min.) lysates as prepared above for GAA assay. Samples were analyzed in duplicates by adding 4 μL of lysate to 36 μL water with and without 10 μL of 800 units/mL of amyloglucosidase enzyme (Sigma) and incubated for 1 hour at 50° C. The reaction was stopped by heat inactivation at 100° C. for 10 min. Finally 200 μL of glucose reagent was added to estimate the amount of glucose released at 340 nm absorbance on Spectramax. A glycogen standard curve ranging from 400 μg/mL to 5 μg/mL was run each day for conversion of absorbance data to absolute glycogen levels. Data are ultimately expressed as μg of glycogen cleaved/milligram of protein. The protein levels were measured in lysates (before denaturing) using Micro BCA Protein Assay Kit according to the manufacturer's instructions.
(§2) The dosing solutions were made fresh each week and water consumption was monitored daily.
(§3) After dosing was completed, mice were euthanized and plasma samples as well as tissue samples harvested as described above.
Mice were orally dosed (ad libitum in drinking water) either daily or using one of three less-frequent on/off regimens (i.e., (i) 3 days on/4 days off; (ii) 5 days on/2 days off; or (iii) 7 days on/7 days off). […] The dosing solution was made fresh each week and water consumption was monitored daily.
After dosing was completed, mice were euthanized and tissue samples harvested as described above.

GAA [2] = assay: GAA activity, protein and processing in monkeys administered DNJ orally; format: in vivo, cynologous monkeys; details: cynomolgus monkeys, data not shown
[3] = system: mutant forms of GAA in Pompe patient-derived fibroblasts; assay: Level of mutant GAA in Pompe patient-derived fibroblasts; format: cell-based, human; details: data not shown
Half-life of DNJ = details: stated within a theory on/off dosing, compared to GAA (days); no method
GAA [4] = target: T2, GAA (Mus musculus, UniProt P70699); assay: GAA activity, protein and processing in mice administered DNJ orally; format: in vivo; details: data not shown
T2 construct: from tissue
T2 sequence (P70699 70-953): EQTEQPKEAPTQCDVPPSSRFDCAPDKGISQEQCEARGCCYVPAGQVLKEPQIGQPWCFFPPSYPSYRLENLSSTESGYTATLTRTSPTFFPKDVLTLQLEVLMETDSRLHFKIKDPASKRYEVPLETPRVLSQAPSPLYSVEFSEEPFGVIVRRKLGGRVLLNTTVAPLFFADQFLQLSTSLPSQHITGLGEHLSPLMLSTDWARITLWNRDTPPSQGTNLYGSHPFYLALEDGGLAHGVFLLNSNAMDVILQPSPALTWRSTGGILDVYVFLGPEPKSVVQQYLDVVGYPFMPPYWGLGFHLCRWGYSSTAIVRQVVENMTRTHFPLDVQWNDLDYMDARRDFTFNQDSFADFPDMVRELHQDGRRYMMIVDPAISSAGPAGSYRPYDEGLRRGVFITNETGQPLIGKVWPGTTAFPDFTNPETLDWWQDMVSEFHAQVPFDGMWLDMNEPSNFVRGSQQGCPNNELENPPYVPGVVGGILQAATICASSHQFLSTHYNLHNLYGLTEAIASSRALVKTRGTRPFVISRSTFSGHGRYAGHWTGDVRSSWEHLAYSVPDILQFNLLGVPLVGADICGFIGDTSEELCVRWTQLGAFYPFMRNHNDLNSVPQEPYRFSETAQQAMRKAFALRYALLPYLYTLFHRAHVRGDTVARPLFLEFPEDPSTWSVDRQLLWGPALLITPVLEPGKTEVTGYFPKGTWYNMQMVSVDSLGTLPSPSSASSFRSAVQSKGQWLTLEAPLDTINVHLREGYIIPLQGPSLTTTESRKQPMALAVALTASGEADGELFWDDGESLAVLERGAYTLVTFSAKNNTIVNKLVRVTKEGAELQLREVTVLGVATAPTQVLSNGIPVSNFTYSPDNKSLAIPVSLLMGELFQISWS

[5] = system: mutant forms of recombinant human GAA in COS-7 cells; assay: Level of mutant GAA in transiently-transfected COS-7 cells; format: cell-based; details: COS-7 cells transiently-transfected with recombinant human GAA; data not shown
hP545L GAA [6] = target: T3, hP545L GAA (Homo sapiens, UniProt P10253, P545L); assay: GAA protein level by Western blotting in tissues of DNJ-dosed hP545L GAA Tg/KO mice; format: in vivo; details: 'Moderate' hP545L GAA Tg/KO mice; DNJ 30, 100, 300 mg/kg/day oral, 4 weeks; disease-relevant tissues
Description: as §1
Tissue lysates (50 μg total protein per lane) were subjected to SDS-PAGE on 12% gels (Bio-Rad, Hercules, Calif.), transferred to PVDF membranes (Bio-Rad), and immunoblotted with a rabbit anti-human GAA (kind gift of Dr. Barry Byrne) polyclonal antibody (1:500 dilution). Protein bands were detected using peroxidase-conjugated goat anti-rabbit secondary antibodies (1:1000) (Jackson Immunosearch Labs, West Grove, Pa.) in combination with enhanced chemiluminescence (Pierce). […]
as §2

[7] = target: human GAA missense mutations (Homo sapiens, UniProt P10253, P545L); assay: In vitro studies to identify a human GAA missense mutation responsive to DNJ; format: cell-based; details: 5-day incubation with DNJ, data not shown
[8] = system: human GAA missense mutations; assay: as above; format: cell-based; details: data not shown
hP545L GAA [9] = target: T3, hP545L GAA; assay: Biochemical assay for determining GAA level in tissues of DNJ-dosed hP545L GAA Tg/KO mice; format: in vivo; details: 'Moderate' hP545L GAA Tg/KO mice; DNJ 30, 100, 300 mg/kg/day oral ad libitum in drinking water, 4 weeks; disease-relevant tissues
Description: as §1, §2, §3

[10] = DNJ 30, 100, 300 mg/kg/day oral, 4 weeks

- alpha-galactosidase activity (alpha-galactosidase): no increase
- binding to GAA (recombinant human GAA): directly bind
- thermostability of recombinant human GAA (recombinant human GAA): concentration-dependent increase
- half-life of DNJ (Half-life of DNJ): hours
- GAA protein levels (GAA [4]): increased
- processing to the 70-kDa mature form of GAA (GAA [4]): increased
- GAA activity (GAA [4]; oral): increase in a dose-dependent manner
- GAA protein levels (hP545L GAA [6]): significant and dose-dependent increase
- processing of GAA protein to its 76 kDa mature form (hP545L GAA [6]): significant and dose-dependent increase
- GAA levels (tissue GAA activity) (hP545L GAA [9]): significant and dose-dependent increase
Compound: OC[C@H]1NC[C@H](O)[C@@H](O)[C@@H]1O [DNJ, 1-deoxynojirimycin-HCl]
- GAA processing to the 95-, 76-, and 70-kDa forms [1]: increase
- GAA protein levels [1]: increase
- level of GAA activity [1]: increase
- glycogen reduction, on/off regimens compared to daily dosing (hP545L GAA Tg/KO mice; 100 mg/kg/day oral, 4 weeks, p<0.05 daily vs. on/off): greater glycogen reduction
- glycogen levels in disease-relevant tissue (hP545L GAA Tg/KO mice; 100 mg/kg/day oral, daily or on/off (3/4, 5/2, 7/7 days), 4 weeks, majority of tissues examined, p<0.05 vs. untreated): significant reduction
- glycogen levels of brain (hP545L GAA Tg/KO mice; [10]): robust reduction
- glycogen levels of diaphragm (hP545L GAA Tg/KO mice; [10]): moderate reduction
- glycogen levels of gastrocnemius (hP545L GAA Tg/KO mice; [10]): moderate reduction
- glycogen levels of heart (hP545L GAA Tg/KO mice; [10]): moderate reduction
- glycogen levels of skin (hP545L GAA Tg/KO mice; [10]): robust reduction
- glycogen levels of soleus (hP545L GAA Tg/KO mice; [10]): robust reduction
- tissue glycogen levels (hP545L GAA Tg/KO mice; four-week oral administration (ad libitum), tissues overall): decrease
- GAA activity (GAA [2]; oral): increase in a dose-dependent manner
- GAA protein levels (GAA [2]): increased
- processing to the 70-kDa mature form of GAA (GAA [2]): increased
- level of multiple different mutant forms of GAA [3]: significantly increase
- level of multiple different mutant forms of GAA [5]: significantly increase
- GAA activity, P545L mutation [7]: robust, reproducible, dose-dependent and statistically-significant increase
- responsiveness of P285R, E262K, E579K GAA mutations to DNJ [8]: even more responsive than P545L
